Key:
[1] = tested on: GAr-based inhibition of translation; assay: Yeast assay (assays described in Lista et al.); format: cell-based, Saccharomyces cerevisiae
Text: A yeast-based (Saccharomyces cerevisiae) assay that recapitulates all the aspects of the GAr-based inhibition of translation, including the GAr-length dependency, has been developed, that allowed understanding the mechanisms of GAr-mediated mRNA translation—suppression in cis, as well as the cellular factors involved (Lista et al. Biotechnol J 2015, 10, 1670-1681). This assay was successfully used to identify small molecular weight compounds that can stimulate EBNA1 expression both in yeast and mammalian cells and that relieve GAr-based limitation of antigen presentation (Voisset et al. Dis Model Mech 2014, 7, 435-444).
Compounds 1a, 2a, 4a, 5a, 7a, 10a and 11a were also tested in the various assay described in Lista et al. (Nat Commun 2017, 8, 16043).

G4-RNA EBNA1 = assay: HT-G4-FID assay: Thiazole Orange displacement from G4-RNA; format: binding, Epstein-Barr virus
Description: This assay is based on the displacement of a fluorescent indicator (Thiazole Orange, hereinafter TO) from a G4-RNA structure (RNA G-quadruplex of EBNA1) by a putative ligand such as the compounds of the invention (see FIG. 1). This displacement is quantified as % TO displacement. The percentage of TO displacement is calculated from the fluorescence intensity (F) in the presence of a putative ligand, using:
[formula] where F0 is fluorescence intensity of the probe (TO) bound to RNA without added ligand. The percentage of displacement is then plotted as a function of the concentration of added ligand. The RNA affinity of putative ligands is evaluated using the concentration of a ligand required to decrease the fluorescence of the probe by 50% (noted DC50), which is determined graphically from non-linear fitting of the displacement curve. […] 2. Materials and Reagents
Thiazole Orange (TO) and cacodylic acid were purchased from Aldrich and used without further purification. The oligoribonucleotide EBNA1 [5′-r(GGGGCAGGAGCAGGAGGA)-3′] (SEQ ID no 1) purified by reversed-phase HPLC was purchased from Eurogentec.
Stock solutions of the ligands (2 mM in DMSO (dimethylsulfoxyde)) were used for G4-FID assay, unless otherwise stated, and were stored at −20° C. Stock solutions of TO (2 mM in DMSO) were used for G4-FID assay. Fluorescent probe powders and solutions were stored and used, protected from light and used as aliquots to avoid freeze-thaw cycles. HT-G4-FID measurements were performed on a FLUOstar Omega microplate reader (BMG Labtech) with 96-well Non-Binding Surface black with black bottom polystyrene microplates (Corning ref 3650).
For HT-G4-FID assay, the oligonucleotide was dissolved in K^+−100-buffer (10 mM lithium cacodylate, pH 7.3, 100 mM KCl, 1 mM EDTA, 1% DMSO). Oligonucleotide concentrations were determined on the basis of their absorbance at 260 nm. Prior to use, the oligonucleotide was pre-treated by heating at 95° C. for 5 min followed by a slow cooling to 25° C.
Each G4-FID assay is performed in a 96-well microplates. […] The microplate is filled with (a) K^+−100 solution (qs for 200 μL) (b) 10 μL of a solution of pre-folded oligonucleotides (5 μM) and TO (10 μM-2 eq) and (c) an extemporaneously prepared 5 μM ligand solution in K^+−100 buffer (0 to 100 μL along the line of the microplate, i.e., from column […]: 0, 0.125, 0.25, 0.375, 0.5, 0.625, 0.75, 1.0, 1.25, 1.5, 2.0 and 2.5 μM) (see Largy et al., Anal Bioanal Chem 2011, 400, 34193427). After 5 min of orbital shaking at 500 rpm, fluorescence intensity is measured using the following experimental parameters: positioning delay: 0.5 s, 20 flashes per well, emission/excitation filters (nm): 485/520, gain adjusted at 80% of the fluorescence from the most fluorescent well (i.e., a well from column A).
Results are shown in Table 1 below (lower DC50 values indicate higher affinity of compounds to the G4-RNA structure of EBNA1).

quadruplex RNA F-EBNA1-T = assay: FRET-melting assay; format: binding, Epstein-Barr virus
Text: The FRET-melting assay is based on thermal denaturation of G4-ARN monitored by fluorescence due to the phenomenon of Förster Resonance Energy Transfer (FRET). This method uses quadruplex-forming RNA sequence dual-labeled with two different fluorophores: a donor (fluorescein, or FAM) and an acceptor (tetramethylrhodamine, or TAMRA). When RNA is folded into G-quadruplex (G4) structure, fluorescence of the donor fluorophore is weak due to strong energy transfer (FRET) to the neighboring acceptor fluorophore. Upon thermal denaturation, the quadruplex unfolds and the fluorophores are separated, leading to decrease of the FRET effect and increase of the fluorescence of the donor (see FIG. 2). By following the fluorescence of the donor as a function of temperature, a melting curve of the G-quadruplex RNA can be obtained, which allows determining the temperature of denaturation at which 50% of the quadruples is unfolded (T1, FIG. 3).
The FRET-melting assay allows assessing the affinity of small molecules (ligands) for the G4-RNA. The addition of a G4-ligand stabilizes the G-quadruplex structure and increases the denaturation temperature. The temperature of denaturation in the presence of ligands (T2) can be compared with that obtained in the absence of ligands (T1). The value of ΔTm (ΔTm=T2−T1) represents a measure of the affinity of the compounds of the invention (ligand). Generally, values of ΔTm>20° C. correspond to ligands of high affinity.
The dual-labeled oligoribonucleotide EBNA1 [5′-FAM-r(GGGGCAGGAGCAGGAGGA)-TAMRA-3′] (SEQ ID no 2) purified by reversed-phase HPLC was purchased from Eurogentec. The donor fluorophore was 6-carboxyfluorescein (FAM) and the acceptor fluorophore was 6-carboxytetramethylrhodamine (TAMRA).
Stock solutions of the ligands (2 mM in DMSO) were used for FRET-melting assay, unless otherwise stated, and were stored at −20° C. FRET-melting measurements are performed on 7900HT Fast Real-Time PCR System (Applied Biosystems) with Microamp Fast optical 96-well reaction plate (Applied Biosystems).
Preparation of Oligonucleotides For FRET-melting assay, oligoribonucleotide F-EBNA1-T was dissolved in K^+10 buffer (10 mM lithium cacodylate buffer, pH 7.3, supplemented with 10 mM KCl and 90 mM LiCl).
Prior to use, all oligonucleotides were pre-treated by heating at 95° C. for 5 min, then rapidly cooled to 4° C. to favor the intramolecular folding by kinetic trapping. Duplex-DNA ds26 (5′CAA-TCG-GAT-CGA-ATT-CGA-TCC-GAT-TG-3′) (SEQ ID no 3) was prepared by heating this self-complementary strand at 90° C. for 5 min in K^+10 buffer followed by a slow cooling over 6 h.
FRET-melting assay is performed in 96-well plates on real time PCR apparatus 7900HT Fast Real-Time PCR System using the heating ramp as follow: 5 min at 25° C., then increase of 0.5° C. every minute until 95° C. Each experimental condition was tested in duplicated in a volume of 25 μL for each sample. The 96-well plates (Applied Biosystems) were prepared by aliquoting the annealed RNA (24 μL of 0.21 μM solution in K^+10 buffer) into each well, followed by 1 μL of ligand solution (25 μM in K^+10 buffer). For competition experiments, duplex competitors were added to 200 nM quadruplex sequences at final concentrations of 3.0 μM (15 eq) and 10.0 μM (50 eq), with a total reaction volume of 25 μL, with the labeled oligoribonucleotide (0.2 μM) and the ligand (1.0 μM). Measurements were made with excitation at 492 nm and detection at 516 nm. The change in the melting temperature in the presence of 1.0 μM putative ligand, ΔTm (1.0 μM), was calculated from at least two experiments by subtraction of the blank from the averaged melting temperature of each compound (1.0 μM).
The results are shown in FIG. 4 and in Table 2 below (higher ΔTm values indicate higher affinity of the compounds to G4-RNA structure of EBNA1).

[2] = tested on: interaction between NCL and the G4s of EBNA1 mRNA; conditions: earlier study, Lista et al. Nat Commun 2017; cited from earlier work

## C[n+]1ccc(C=NNC(=O)c2cccc(C(=O)NN=Cc3cc[n+](C)cc3)n2)cc1.[I-].[I-] [Compound 1a, N′^2,N′^6-Bis[(1-methylpyridinium-4-yl)methylene]pyridine-2,6-dicarbohydrazide iodide]
[1]
  result in the yeast assay: positive results

## C[n+]1ccc(C=NNC(=O)c2ccc3ccc4ccc(C(=O)NN=Cc5cc[n+](C)cc5)nc4c3n2)cc1.[I-].[I-] [Compound 10a, N′^2,N′^9-Bis[(1-methylpyridinium-4-yl)methylene]-1,10-phenanthroline-2,9-dicarbohydrazide iodide]
G4-RNA EBNA1; K+-100 buffer, pH 7.3, triplicate assays
  DC50: 320 ± 20 nM
G4-RNA EBNA1; conclusion from Table 1
  affinity for the G-quadruplex structure of EBNA1 (in words, FID data): particularly high affinity
Quadruplex RNA F-EBNA1-T; F-EBNA1-T 0.2 μM, ligand 1.0 μM, K+10 buffer, competitor DNA ds26 3 μM (15 eq)
  ΔTm, ligand + 3 μM ds26: 15.0 ± 0.6 °C
Quadruplex RNA F-EBNA1-T; F-EBNA1-T 0.2 μM, ligand 1.0 μM, K+10 buffer, competitor DNA ds26 10 μM (50 eq)
  ΔTm, ligand + 10 μM ds26: 12.5 ± 1.5 °C
Quadruplex RNA F-EBNA1-T; F-EBNA1-T 0.2 μM, ligand 1.0 μM, K+10 buffer, no competitor
  ΔTm, ligand alone: 15.7 ± 0.6 °C
Quadruplex RNA F-EBNA1-T; conclusion from Table 2
  affinity for the G-quadruplex structure of EBNA1 (in words, FRET-melting data): particularly high affinity
[1]
  result in the yeast assay: positive results

## C[n+]1ccc(C=NNC(=O)c2cc(C(=O)NN=Cc3cc[n+](C)c4ccccc34)ncn2)c2ccccc21.[I-].[I-] [Compound 5a, N′^4,N′^6-Bis[(1-methylquinolinium-4-yl)methylene]pyrimidine-4,6-dicarbohydrazide iodide]
[1]
  result in the yeast assay: positive results

## C[n+]1cc(NC(=O)c2ccc3ccc4ccc(C(=O)Nc5cc6ccccc6[n+](C)c5)nc4c3n2)cc2ccccc21 [PhenDC3]
[2]
  NCL-EBNA1 mRNA G-quadruplex interaction by PLA: prevented

## C[n+]1ccc(C=NNC(=O)c2cc(C(=O)NN=Cc3cc[n+](C)cc3)ncn2)cc1.[I-].[I-] [Compound 4a, N′^4,N′^6-Bis[(1-methylpyridinium-4-yl)methylene]pyrimidine-4,6-dicarbohydrazide iodide]
[1]
  result in the yeast assay: positive results

## C[n+]1ccc(C=NNC(=O)c2ccc3ccc(C(=O)NN=Cc4cc[n+](C)cc4)nc3n2)cc1.[I-].[I-] [Compound 7a, N′^2,N′^7-Bis[(1-methylpyridinium-4-yl)methylene]-1,8-naphthyridine-2,7-dicarbohydrazide iodide]
[1]
  result in the yeast assay: positive results

From patent US11406631B2, “Hydrazone derivatives for preventing or treating EBV-related cancers” (Universite de Bretagne Occidentale, priority 2018, dated 2022)
